Assay: Evaluation of storage stability (P-NMR integration values before and after storage)
Description: Note that evaluation of storage stability can be carried out by calculation of peak area derived from Compound (6) by high performance liquid chromatography or calculation of integration value by P-NMR measurement before and after storage.
Using the resulting di-tert-butyl chlorophosphate, N-methylmorpholine (NMM) and N,N-diisopropyl ethylamine (iPr2EtN) were added at given concentrations as tertiary amines, prior to concentrating the organic layer containing the phosphate. Then, after storing at a temperature of 40° C. for 3 hours (3 hr) or 6 hours (6 hr), integration values of di-tert-butyl chlorophosphate before and after storage were measured by P-NMR measurements. Note that the storage test at 40° C. was carried out using EYELA ChemStation (temperature accuracy of ±1° C.) as thermoregulated bath.

[1] = 0 mol % NMM added, 40° C., 3 hours storage test, FIG. 2

CC(C)(C)OP(=O)(OCCl)OC(C)(C)C [di-tert-butyl chlorophosphate, di-tert-butyl chloromethyl phosphate]
amount of remaining di-tert-butyl chlorophosphate [1]: 34% | initial di-tert-butyl chlorophosphate decomposed [1]: 66% | amount of di-tert-butyl chlorophosphate remaining (1 mol % NMM added, 40° C., 3 hours storage test): 34% | amount of di-tert-butyl chlorophosphate remaining (2.5 mol % NMM added, 40° C., 3 hours storage test): 88% | decomposition of di-tert-butyl chlorophosphate on storage (5 mol % NMM added, 40° C., 3 hours storage test, FIG. 2): not observed | decomposition of di-tert-butyl chlorophosphate on storage (5 mol % NMM added, stored at 40° C. for 3 hr or 6 hr, FIG. 1): no decomposition | decomposition of di-tert-butyl chlorophosphate on storage (5 mol % iPr2EtN added, stored at 40° C. for 3 hr or 6 hr, FIG. 1): no decomposition | decomposition of di-tert-butyl chlorophosphate on storage (10 mol % NMM added, storage at room temperature for 1.5 days): no decomposition
